Reference: ChEMBL document CHEMBL5137094, “Construction of Covalent Bisubstrate Inhibitor of Protein Kinase Reacting with Cysteine Residue at Substrate-Binding Site” (J Med Chem, 2022)
Calls of active or inactive are those of the source. The calls are words filed in the database; no cut-off is given here.

Tests used:
[1] = Drug uptake in live human HeLa cells assessed as increase in fluorescence intensity at 1 to 5 uM by microplate reader analysis; type: ADME, cell-based; conditions: TDE = time-dependent effect, dose lower 1 µM, time lower 15 min, dose upper 5 µM, time upper 120 min
[2] = Drug uptake in cell membrane of human HeLa cells assessed as observation of cell plasma membrane protrusions at 1 to 5 uM incubated for 15 mins to 2 hrs by live cell imaging analysis; type: ADME, cell membranes; conditions: dose lower 1 µM, time lower 15 min, dose upper 5 µM, time upper 120 min
[3] = Drug uptake in cytoplasm of human HeLa cells at 1 to 5 uM incubated for 15 mins to 2 hrs in presence of forskolin by live cell imaging analysis; type: ADME, subcellular; conditions: dose lower 1 µM, time lower 15 min, dose upper 5 µM, time upper 120 min
[4] = Drug uptake in cytoplasm of human HeLa cells at 1 to 5 uM incubated for 15 mins to 2 hrs by live cell imaging analysis; type: ADME, subcellular; conditions: dose lower 1 µM, time lower 15 min, dose upper 5 µM, time upper 120 min
[5] = Drug uptake in live human HeLa cells assessed as drug internalization at 5 uM incubated for 15 mins to 2 hrs in presence of forskolin by live cell imaging analysis; type: ADME, cell-based; conditions: time 15-120 min
[6] = Drug uptake in endosome of human HeLa cells assessed as punctate perinuclear pattern formation at 1 to 5 uM incubated for 15 mins to 2 hrs in presence of forskolin by live cell imaging analysis; type: ADME, subcellular; conditions: dose lower 1 µM, time lower 15 min, dose upper 5 µM, time upper 120 min
[7] = Drug uptake in endosome of human HeLa cells assessed as punctate perinuclear pattern formation at 1 to 5 uM incubated for 15 mins to 2 hrs by live cell imaging analysis; type: ADME, subcellular; conditions: dose lower 1 µM, time lower 15 min, dose upper 5 µM, time upper 120 min
[8] = Drug uptake in live human HeLa cells assessed as drug internalization at 5 uM incubated for 15 mins to 2 hrs in absence of forskolin by live cell imaging analysis; type: ADME, cell-based; conditions: time 15-120 min
[9] = Drug uptake in cell membrane of human HeLa cells assessed as observation of cell plasma membrane protrusions at 1 to 5 uM incubated for 15 mins to 2 hrs in presence of forskolin by live cell imaging analysis; type: ADME, cell membranes; conditions: dose lower 1 µM, time lower 15 min, dose upper 5 µM, time upper 120 min
[10] = Drug uptake in live human HeLa cells assessed as drug penetration by measuring increase in fluorescence intensity at 5 uM incubated for 2 hrs by PKAc antibody immunostaining based Western blot analysis; type: ADME, cell-based
[11] = Drug uptake in human HeLa cell lysates assessed as drug penetration by measuring increase in fluorescence intensity at 1.5 uM incubated for 2 hrs by PKAc antibody immunostaining based Western blot analysis; type: ADME, subcellular
[12] = target: T1, cAMP-dependent protein kinase catalytic subunit alpha (Homo sapiens, UniProt P17612); assay: Binding affinity to recombinant human spiked PKAC-alpha in human HeLa cells assessed as covalent compound-protein adduct formation by measuring multiple fluorescent band formation at 0.15 to 1 uM incubated for 1 hr by 5-TAMRA dye based Western blot analysis; type: cell-based; conditions: dose 0.15-1 µM
[13] = target: T1, cAMP-dependent protein kinase catalytic subunit alpha; assay: Binding affinity to recombinant human PKAC-alpha in human HeLa cells assessed as increase in intensity of fluorescent labeled bands at 5 uM incubated for 2 hrs in presence of forskolin by Western blot analysis; type: cell-based

Drug uptake [1] | Drug uptake [2] | Drug uptake [3] | Drug uptake [4] | Drug uptake [5] | Drug uptake [6] | Drug uptake [7] | Drug uptake [8] | Drug uptake [9] | Drug uptake [10] | Drug uptake [11] | Activity [12] | Activity [13] | Compound
Tde | Active | Active | Active | Active | Active | Active | Active | Active |  |  |  |  | CC[C@H](C)[C@H](NC(=O)CCC(=O)N[C@@H](CCCCNC(=O)[C@@H](CCCNC(=N)N)NC(=O)CCCCCCCC(=O)N1CCN(c2ncnc3[nH]ccc23)CC1)C(=O)N[C@H](CCCNC(=N)N)C(=O)N[C@H](CCCNC(=N)N)C(=O)N[C@H](CCCCNC(=O)CCCCC[N+]1=C(/C=C/C=C/C=C2\N(C)c3ccccc3C2(C)C)C(C)(C)c2ccccc21)C(N)=O)C(=O)NCC(=O)CF
 |  |  |  |  |  |  |  |  | Active | Active | Active | Active | CC[C@H](C)[C@H](NC(=O)CCC(=O)N[C@@H](CCCCNC(=O)[C@@H](CCCNC(=N)N)NC(=O)CCCCCCCC(=O)N1CCN(c2ncnc3[nH]ccc23)CC1)C(=O)N[C@H](CCCNC(=N)N)C(=O)N[C@H](CCCNC(=N)N)C(=O)N[C@H](CCCCNC(=O)CCCCC[N+]1=C(/C=C/C=C/C=C2\N(C)c3ccc4ccccc4c3C2(C)C)C(C)(C)c2c1ccc1ccccc21)C(N)=O)C(=O)NCC(=O)CF
